Measured values taken from patent publication US8940705B2, “Method of treating disease and selectively modulating transcriptional regulation by a glucocorticoid receptor by administering aclacinomycin and dexamethasone” (The Regents of the University of California, priority 2009, dated 2015).

Experiments:
GR [1] = target: T1, GR (Homo sapiens, UniProt P04150); assay: Multi-promoter fluorescent protein reporter compound screen for GR modulators; assay type: cell-based; design: endogenous in cells; host or cells: A549; conditions: A549 cells, library compounds 2.5 μM with dex 100 nM; reporter fluorescence relative to plate mean
T1 sequence (P04150 1-777): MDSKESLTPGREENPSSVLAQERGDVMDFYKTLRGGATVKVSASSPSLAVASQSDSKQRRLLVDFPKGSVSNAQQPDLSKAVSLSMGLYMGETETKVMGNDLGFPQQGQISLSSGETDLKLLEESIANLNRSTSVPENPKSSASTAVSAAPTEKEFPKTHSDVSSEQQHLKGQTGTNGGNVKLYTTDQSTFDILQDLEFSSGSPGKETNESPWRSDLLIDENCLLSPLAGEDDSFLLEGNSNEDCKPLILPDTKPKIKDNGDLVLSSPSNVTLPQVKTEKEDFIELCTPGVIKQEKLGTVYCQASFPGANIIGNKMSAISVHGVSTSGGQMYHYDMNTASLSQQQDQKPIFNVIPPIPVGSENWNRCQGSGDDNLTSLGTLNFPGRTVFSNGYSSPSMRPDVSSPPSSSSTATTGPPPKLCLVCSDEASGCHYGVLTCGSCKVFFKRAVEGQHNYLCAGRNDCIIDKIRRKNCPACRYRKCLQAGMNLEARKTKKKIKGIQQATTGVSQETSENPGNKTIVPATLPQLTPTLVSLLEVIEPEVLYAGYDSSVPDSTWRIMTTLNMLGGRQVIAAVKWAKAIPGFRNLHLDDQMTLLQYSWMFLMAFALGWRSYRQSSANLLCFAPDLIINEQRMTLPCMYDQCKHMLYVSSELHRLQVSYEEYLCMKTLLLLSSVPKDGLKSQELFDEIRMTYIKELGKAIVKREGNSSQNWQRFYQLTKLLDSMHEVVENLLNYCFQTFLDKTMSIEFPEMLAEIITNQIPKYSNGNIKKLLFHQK
Description: Compound Screen. A549 cells were transfected with an equal mixture of pENaC-CFP, pGILZ-YFP, pFKBP5-OFP (1.3 μg each), or with pSV40-ChFP (4 μg). The next day, cells were mixed (˜1.8×10^4 of the cells triple-transfected with pENaC-CFP, pGILZ-YFP, pFKBP5-OFP; ˜2×10^3 cells transfected with pSV40-ChFP) and replated into 96 well plates (Costar 3603). 2 hours later, library compounds (2.5 μM) and dex (100 nM) were added using a Biomek robot. The following day, cells were fixed for 4 minutes in 4% paraformaldehyde and fluorescence was measured sequentially for each reporter using a Safire plate reader (Tecan). Hits were scored based on the mean and standard deviation (s.d.) of the experimental wells on each plate. Criteria for a hit were if one reporter was more than 1.5×s.d. from the mean in duplicate, or if two reporters were more than 0.8×s.d. from the mean in duplicate. If the control SV40-ChFP was more than 2×s.d. from the mean in a single plate, or 0.8×s.d. in duplicate plates (in the same direction as the GR reporters), the well was not scored as a hit.
We used the system of Example 1 to screen a library of 1040 natural products and FDA-approved drugs for modulators of GR signaling (Abbott, A. Nature 417:109). The screen design is outlined in FIG. 2. The pENaC-CFP, pGILZ-YFP, and pFKBP5-OFP reporters indicated GR signaling, while pSV40-mCh, an internal control, excluded non-specific transcription inhibitors and toxins. We screened the library in duplicate in the presence of saturating dex (100 nM). Z′, a function that reflects the ability to discriminate between control and experimental wells (Zhang, J. H. et al., J Biomol Screen 4:67-73 (1999)), was determined for dex treatment of each GR reporter. The Z′ values were: Z′(ENAC-CFP)=0.68; Z′(GILZ-YFP)=0.64; and Z′(FKBP5-OFP)=0.66. These indicate that the screen should efficiently identify compounds that increase or decrease fluorescence from any of the three experimental promoters (Zhang, J. H. et al., J Biomol Screen 4:67-73 (1999)).

GR [2] = target: T1, GR; assay: qPCR of endogenous GR target genes, A549 cells; assay type: cell-based; design: endogenous in cells; host or cells: A549; conditions: with dex, RPL19 reference
Text: (§1) Quantitative PCR. Total RNA isolation used Trizol and Pure Link (Invitrogen). […] Rpl19 expression was used for data normalization.

GR [3] = target: T1, GR; assay: Luciferase assays, GR-responsive reporters, A549 cells; assay type: cell-based; design: endogenous in cells; host or cells: A549; conditions: for GR activity (GR-mediated induction of pENaC-luc reporter): pENaC-luc and pSV40-rl; for Dose dependent: whether the drug acted dose-dependently on GR-luciferase reporters
Description: (§2) Transfections. The day prior to transfection, ˜3×10^5 cells were plated in 6-well dishes. Transfections used Lipofectamine 2000 (Invitrogen). 4 μg of total plasmid DNA were used for each transfection. For A549 cells, 500 μL of DNA/lipofectamine complex was added to 1.5 ml of DMEM with pen/strep and 5% FBS. For U2OS cells, 500 μl of DNA/lipofectamine complex was added to 1.5 ml of Optimem. After 3-4 hours of incubation, media was replaced with standard growth media.
(§3) Luciferase assays. Luciferase assays used the Promega Dual-Luciferase Reporter system. Briefly, cells were transfected with various firefly luciferase plasmids and pSV40-RL at a ratio of 10:1. The day after transfection, cells were split into 96-well dishes and treated with dex and various drugs. Cells were harvested in 50 μl 1XPLB (Promega) 12-18 hr after drug treatment and luciferase assays were performed on 10 μl of lysate. Luminscence was detected using an Ultra Evolution plate reader (Tecan).

[4] = tested on: genes that are regulated by glucocorticoids; assay: In vivo screening: qPCR of glucocorticoid-regulated genes in mouse tissues; conditions: mice, 7.5 mg/kg aclacinomycin, one hour later 2.5 mg/kg dexamethasone, tissues after 6 hours
Description: Mice were injected with 7.5 mg/kg aclacinomycin. One hour later, mice were injected with 2.5 mg/kg dexamethasone. After 6 hours, lungs, liver, heart and skeletal muscle were harvested for RNA preparation. qPCR was performed on isolated RNA from these tissues to analyze expression levels of various genes that are regulated by glucocorticoids.

GR [5] = target: T2, GR (Rattus norvegicus, UniProt P06536); assay: Luciferase assays, GR-responsive reporters, U2OS-GR cells; assay type: cell-based; conditions: pENaC-luc and pSV40-rl, with dex
T2 construct: expressed in transfected cells; host or cells: U2OS-GR
T2 sequence (P06536 1-795): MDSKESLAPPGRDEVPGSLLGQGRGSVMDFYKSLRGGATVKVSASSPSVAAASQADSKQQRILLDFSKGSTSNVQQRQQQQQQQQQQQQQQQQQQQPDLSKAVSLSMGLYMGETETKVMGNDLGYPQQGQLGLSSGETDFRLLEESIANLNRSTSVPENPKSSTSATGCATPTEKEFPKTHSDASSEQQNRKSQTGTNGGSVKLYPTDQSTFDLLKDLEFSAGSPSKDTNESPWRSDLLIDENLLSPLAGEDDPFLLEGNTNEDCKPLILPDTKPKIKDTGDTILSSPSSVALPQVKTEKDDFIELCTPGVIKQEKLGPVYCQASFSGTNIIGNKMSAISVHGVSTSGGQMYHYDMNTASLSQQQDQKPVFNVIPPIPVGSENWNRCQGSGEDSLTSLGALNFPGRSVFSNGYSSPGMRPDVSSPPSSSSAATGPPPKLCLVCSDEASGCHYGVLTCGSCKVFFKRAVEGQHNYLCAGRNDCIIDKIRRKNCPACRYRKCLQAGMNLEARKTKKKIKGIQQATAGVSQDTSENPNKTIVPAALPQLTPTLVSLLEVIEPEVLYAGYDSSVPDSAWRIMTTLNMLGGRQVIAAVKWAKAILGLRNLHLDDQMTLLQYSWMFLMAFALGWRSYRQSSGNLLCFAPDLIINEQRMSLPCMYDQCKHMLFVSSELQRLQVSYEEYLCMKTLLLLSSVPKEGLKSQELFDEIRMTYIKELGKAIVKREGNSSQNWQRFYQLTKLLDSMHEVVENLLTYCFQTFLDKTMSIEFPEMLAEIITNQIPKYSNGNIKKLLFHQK
Description: as §2, §3

GR [6] = assay: qPCR of endogenous GR target genes, cell line not distinguished (FIG. 4B, 5D); assay type: cell-based; conditions: with dex, 24 hr
Text: as §1

androgen receptor (AR) = androgen receptor (AR) (Homo sapiens, UniProt P10275); conditions: Hieronymus et al., Cancer Cell 10:321-330 (2006); cited from earlier work
RNA synthesis = conditions: Long et al., Mol Pharmacol 22:152-7 (1982); cited from earlier work

Chain of androgen receptor (AR) (P10275 whole entry, species assumed): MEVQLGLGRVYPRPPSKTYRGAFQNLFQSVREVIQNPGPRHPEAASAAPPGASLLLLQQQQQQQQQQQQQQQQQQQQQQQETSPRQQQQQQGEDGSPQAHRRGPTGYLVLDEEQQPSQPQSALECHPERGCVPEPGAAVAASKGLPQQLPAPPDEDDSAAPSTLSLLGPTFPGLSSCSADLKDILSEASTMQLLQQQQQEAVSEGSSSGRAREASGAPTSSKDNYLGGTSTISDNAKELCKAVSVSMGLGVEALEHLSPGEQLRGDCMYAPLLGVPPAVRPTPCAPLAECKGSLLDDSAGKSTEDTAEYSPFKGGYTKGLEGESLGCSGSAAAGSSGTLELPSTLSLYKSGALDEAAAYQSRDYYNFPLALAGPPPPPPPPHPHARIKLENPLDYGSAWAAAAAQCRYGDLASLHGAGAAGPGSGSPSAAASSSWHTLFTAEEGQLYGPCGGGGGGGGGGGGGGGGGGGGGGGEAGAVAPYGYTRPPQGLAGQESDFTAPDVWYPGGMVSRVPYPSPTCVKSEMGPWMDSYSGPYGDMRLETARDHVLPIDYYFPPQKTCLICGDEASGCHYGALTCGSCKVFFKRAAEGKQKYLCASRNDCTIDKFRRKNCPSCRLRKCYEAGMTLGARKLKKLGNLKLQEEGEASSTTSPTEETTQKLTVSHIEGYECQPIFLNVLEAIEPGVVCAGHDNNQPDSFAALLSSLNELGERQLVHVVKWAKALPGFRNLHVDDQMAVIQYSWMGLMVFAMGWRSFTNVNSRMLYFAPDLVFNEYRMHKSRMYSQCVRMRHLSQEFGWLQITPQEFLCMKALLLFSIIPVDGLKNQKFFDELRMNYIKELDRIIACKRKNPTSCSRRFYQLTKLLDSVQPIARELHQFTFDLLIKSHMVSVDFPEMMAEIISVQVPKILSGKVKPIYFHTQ

Row | Dose dependent (GR [3]; listed as pararosaniline) | SMILES | ENaC-CFP (GR [1]) | FKBP5-OFP (GR [1]) | GILZ-YFP (GR [1]) | expression of endogenous GR target genes (relative mRNA, qPCR) (GR [2]) | pSV40-luc activity (GR [3]; A549 cells, low doses of Acl, dex-unresponsive reporter) | GR activity (GR-mediated induction of pENaC-luc reporter) (GR [3]; A549 cells, with dex) | effect on GR-dependent reporter pENaC-luc compared with GR-independent constitutive reporter pSV40-rl (GR [3]; A549 cells, with dex) | Dose dependent (GR [3]) | activation of FKBP5 by dexamethasone ([4]; liver and lung (FIGS. 6-7)) | activation of KLF15 by dexamethasone ([4]; lung (FIG. 8)) | repression of the cytokine CCL2 by dexamethasone ([4]; lung (FIG. 9)) | GR activity (luciferase reporter) (GR [5]) | expression of endogenous GR target genes (qPCR), overall (GR [6]) | induction of endogenous ENaC (qPCR) (GR [6]) | androgen receptor (AR) signaling (androgen receptor (AR)) | IC50 for inhibition of RNA synthesis, compared with aclacinomycin (RNA synthesis)
1 |  | CC[C@@]1(O)C[C@H](O[C@H]2C[C@H](N(C)C)[C@H](O[C@H]3C[C@H](O)[C@H](O[C@H]4CCC(=O)[C@H](C)O4)[C@H](C)O3)[C@H](C)O2)c2c(cc3c(c2O)C(=O)c2c(O)cccc2C3=O)[C@H]1C(=O)OC [Aclacinomycin] | ↓↓↓^b (more than 2 standard deviations (s.d.) less than the mean (↓↓↓)) | ↓↓↓ (more than 2 standard deviations (s.d.) less than the mean (↓↓↓)) | ↓↓↓ (more than 2 standard deviations (s.d.) less than the mean (↓↓↓)) | inhibited GR at the tested promoters | Increases | antagonists of GR | reduced GR activation of pENaC-luc much more than the constitutive reporter | yes | blocked the activation | blocked the activation | did not inhibit repression | inhibited GR |  |  |  | 
2 | dose dependent effects | N=C1C=CC(=C(c2ccc(N)cc2)c2ccc(N)cc2)C=C1 [Pararosaniline] | ↓ (0.8 to 2 s.d. less than the mean (↓)) | No effect | ↓ (0.8 to 2 s.d. less than the mean (↓)) |  |  |  |  | yes |  |  |  |  | selectively modulated endogenous GR target genes | selectively inhibited the induction of endogenous ENaC transcription in comparison to FKBP5 | inhibit | 
3 |  | CC[C@@]1(O)C[C@H](O[C@H]2C[C@H](N(C)C)[C@H](O[C@H]3C[C@H](O)[C@H](O[C@H]4C[C@H](O)[C@H](O)[C@H](C)O4)[C@H](C)O3)[C@H](C)O2)c2c(cc3c(c2O)C(=O)c2c(O)ccc(O)c2C3=O)[C@H]1C(=O)OC [marcellomycin] |  |  |  |  |  | no impact on GR-mediated induction of the reporter |  |  |  |  |  |  |  |  |  | similar
